Active and inactive are the calls of the source. The rule behind the calls is not given here.
Tests used:
[1] = tested on: Rattus norvegicus; test: Cognitive enhancing effect in Sprague-Dawley rat assessed as effect on total exploration time for familiar objects in acquisition trial at 0.03 to 0.3 mg/kg, po administered 1 hr measured for 3 mins by novel object recognition test; assay type: functional, organism-based
[2] = target: D(2) dopamine receptor (Homo sapiens, UniProt P14416); test: Agonist activity at dopamine D2 receptor long isoform (unknown origin) expressed in HEK293 cells assessed as induction of calcium flux at 10 uM after 60 min by calcium 4-dye based FLIPR assay relative to control; assay type: functional, cell-based
[3] = target: 5-hydroxytryptamine receptor 2A (Homo sapiens, UniProt P28223); test: Antagonist activity at serotonin 5-HT2A receptor (unknown origin) expressed in HEK293 cells assessed as inhibition of serotonin-induced calcium flux at 10 uM after 15 mins by calcium 4-dye based FLIPR assay relative to control; assay type: functional, cell-based
[4] = target: 5-hydroxytryptamine receptor 7 (Rattus norvegicus, UniProt P32305); test: Displacement of [3H]-5-CT from 5-HT7 receptor in rat cerebral cortex homogenates after 30 mins by liquid scintillation counting
[5] = target: D(1A) dopamine receptor (Homo sapiens, UniProt P21728); test: Antagonist activity at human dopamine D1 receptor expressed in HEK293T cells assessed as inhibition of dopamine-induced cAMP accumulation preincubated for 15 mins followed by dopamine induction and measured after 30 mins by HTRF assay; assay type: functional, cell-based
[6] = Displacement of [3H] nisoxetine from NET in rat hippocampal membrane homogenates after 8 hrs by liquid scintillation counting; assay type: cell membranes
[7] = target: T1, 5-hydroxytryptamine receptor 1A (Rattus norvegicus, UniProt P19327)
T1 sequence (P19327 whole entry): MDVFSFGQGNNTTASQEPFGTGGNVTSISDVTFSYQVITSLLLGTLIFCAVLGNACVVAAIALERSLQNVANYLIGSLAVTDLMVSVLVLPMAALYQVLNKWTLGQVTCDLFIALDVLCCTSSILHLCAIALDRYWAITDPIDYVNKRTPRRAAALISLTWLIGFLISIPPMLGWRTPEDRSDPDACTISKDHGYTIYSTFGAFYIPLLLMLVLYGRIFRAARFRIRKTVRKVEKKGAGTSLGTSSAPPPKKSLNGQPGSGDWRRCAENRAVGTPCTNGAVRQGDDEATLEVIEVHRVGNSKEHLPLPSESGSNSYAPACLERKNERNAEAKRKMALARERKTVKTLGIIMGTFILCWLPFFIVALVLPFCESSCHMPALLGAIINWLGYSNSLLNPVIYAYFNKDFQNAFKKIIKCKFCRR

D(1A) dopamine receptor, sequence (P21728 whole entry): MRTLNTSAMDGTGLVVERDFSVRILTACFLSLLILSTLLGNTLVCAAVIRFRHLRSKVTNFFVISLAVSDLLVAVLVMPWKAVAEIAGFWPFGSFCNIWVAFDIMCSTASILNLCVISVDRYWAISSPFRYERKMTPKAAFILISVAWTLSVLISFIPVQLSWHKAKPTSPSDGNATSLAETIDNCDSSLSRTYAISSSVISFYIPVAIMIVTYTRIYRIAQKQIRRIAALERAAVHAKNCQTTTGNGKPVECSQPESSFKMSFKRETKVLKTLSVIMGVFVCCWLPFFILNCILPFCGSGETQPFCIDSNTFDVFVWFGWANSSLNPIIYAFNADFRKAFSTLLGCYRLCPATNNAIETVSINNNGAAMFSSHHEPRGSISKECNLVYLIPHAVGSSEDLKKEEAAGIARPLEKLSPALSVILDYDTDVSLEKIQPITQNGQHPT
D(2) dopamine receptor, sequence (P14416 whole entry, canonical isoform): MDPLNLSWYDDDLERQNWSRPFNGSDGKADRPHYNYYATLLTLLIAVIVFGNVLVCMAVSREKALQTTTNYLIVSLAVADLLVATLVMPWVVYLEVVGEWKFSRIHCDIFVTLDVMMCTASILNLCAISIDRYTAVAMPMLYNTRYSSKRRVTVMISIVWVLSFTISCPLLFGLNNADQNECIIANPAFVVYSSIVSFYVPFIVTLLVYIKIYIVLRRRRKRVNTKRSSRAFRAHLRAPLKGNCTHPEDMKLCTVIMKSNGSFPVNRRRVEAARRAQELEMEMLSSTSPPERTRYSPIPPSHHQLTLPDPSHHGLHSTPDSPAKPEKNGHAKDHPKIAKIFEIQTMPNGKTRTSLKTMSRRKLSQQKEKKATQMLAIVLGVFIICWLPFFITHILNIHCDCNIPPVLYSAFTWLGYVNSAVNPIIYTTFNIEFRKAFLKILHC
5-hydroxytryptamine receptor 2A, sequence (P28223 whole entry): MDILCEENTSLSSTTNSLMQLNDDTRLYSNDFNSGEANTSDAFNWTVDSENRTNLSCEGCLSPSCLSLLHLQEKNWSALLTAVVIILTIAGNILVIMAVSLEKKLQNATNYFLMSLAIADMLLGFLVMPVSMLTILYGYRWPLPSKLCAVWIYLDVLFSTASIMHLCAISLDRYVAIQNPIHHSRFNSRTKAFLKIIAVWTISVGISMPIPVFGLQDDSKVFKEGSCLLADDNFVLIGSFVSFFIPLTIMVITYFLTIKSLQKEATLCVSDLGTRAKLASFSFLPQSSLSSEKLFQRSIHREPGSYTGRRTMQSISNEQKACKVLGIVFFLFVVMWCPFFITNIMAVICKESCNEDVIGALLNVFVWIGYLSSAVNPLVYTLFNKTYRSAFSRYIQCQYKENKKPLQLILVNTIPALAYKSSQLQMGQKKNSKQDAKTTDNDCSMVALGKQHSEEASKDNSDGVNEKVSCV
5-hydroxytryptamine receptor 7, sequence (P32305 whole entry): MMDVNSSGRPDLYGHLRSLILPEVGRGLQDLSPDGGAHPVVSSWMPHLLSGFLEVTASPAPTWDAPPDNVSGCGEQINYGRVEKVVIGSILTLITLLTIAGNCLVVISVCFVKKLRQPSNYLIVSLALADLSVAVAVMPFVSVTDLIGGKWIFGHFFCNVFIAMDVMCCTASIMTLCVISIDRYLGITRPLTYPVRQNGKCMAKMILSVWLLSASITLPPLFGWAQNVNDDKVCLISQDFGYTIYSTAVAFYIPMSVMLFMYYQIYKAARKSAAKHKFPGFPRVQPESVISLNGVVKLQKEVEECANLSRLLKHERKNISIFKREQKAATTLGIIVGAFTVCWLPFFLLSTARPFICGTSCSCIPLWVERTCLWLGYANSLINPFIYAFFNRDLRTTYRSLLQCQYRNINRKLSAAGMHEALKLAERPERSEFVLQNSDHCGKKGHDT

SMILES: O=C(CCCCN1CCC(c2noc3cc(F)ccc23)CC1)c1cc2c3c(c1)CCN3C(=O)CC2
- Activity [1]: inactive
- Activity [2]: 9.8%
- inhibition [3]: 100%
- Ki [4]: 0.226 µM
- IC50 [5]: 0.366 µM
- Ki [6]: > 1 µM
- Ki [7]: 0.0086 µM
